Laboratory results from PMC4782163, “A Novel Pentapeptide Targeting Integrin β3-Subunit Inhibits Platelet Aggregation and Its Application in Rat for Thrombosis Prevention” (Frontiers in Pharmacology, 2016).
Like-named read-outs stand apart in the source and are kept apart here. Where a SMILES comes first, the peptide text is derived from it.

What was measured:
Kunming mice = system: Kunming mice
Experimental: Kunming mice (n = 6 for each group) were intravenously injected with different concentrations of P1Cm, ranging from 0.075 to 6 mmol/kg (10x IC90), or tirofiban ranging from 0.025 to 2 mmol/kg (10x IC90). Blood pressure and breath were monitored after injection, and the mesentery were observed under microscope after the animals were sacrificed. Mortality within the next 3 days was recorded.

plasma coagulation = assay: Coagulation parameters in plasma (FIB, TT, PT, APTT)
[1] = system: carotid arterial thrombosis; assay: Ferric chloride-induced carotid arterial thrombosis model (CDFI, pathology); type: in vivo, rat; details: 0.15 mmol/kg tail vein, Wistar rats, n = 6, mean ± SD
Experimental: Thirty male Wistar rats (250–300 g) were randomly divided into five groups: high-, middle-, and low-dose treated groups of P1Cm, a saline group, and a tirofiban group (n = 6 per group). The rats were operated on the right common carotid artery (Bird et al., [2008]). Briefly, the rat was first anesthetized by an intraperitoneal injection of ketamine (100 mg/kg). The fascia was bluntly dissected to expose the right common carotid artery immediately after a dosage of 0.15, 0.30, or 0.45 mmoL/kg of P1Cm, 0.15 mmoL/kg of tirofiban, or an equal volume of saline applied accordingly via tail vein injection. A 3 × 4 mm piece of filter paper saturated with ferric chloride (10% solution) was placed under the right carotid artery for 20 min and then removed. Thrombus size and blood flow were detected by color Doppler flow imaging (CDFI) (13 MHz phased-array transducer, LOGIQ S6 Color Doppler Ultrasonographer, GE, USA; Chua et al., [2012]). The animals were kept anesthetized during the CDFI measurements.
To obtain fresh samples immediately after measurement, the animals were sacrificed through an intravenous injection of air, and the injured carotid artery was collected for pathological examination. Carotid artery samples were fixed with 10% neutral buffered formalin and embedded in paraffin wax for routine histological analysis with hematoxylin and eosin staining. Morphometric analysis was carried out using a Leica Q500/W microscope (Leica Microsystems, Wetzlar, Germany). The antithrombosis effect was evaluated by calculating the percentage of carotid artery area covered by the thrombus (Hosokawa et al., [2011]).

[2] = system: artery-vein shunt thrombus formation; assay: Artery-vein shunt thrombosis model; type: in vivo, rat
Experimental: Fifty male Wistar rats (250–300 g) were randomly divided into five groups: high-, middle-, and low-dose groups of P1Cm, a saline group, and a tirofiban group (n = 10 per group). The animals were treated with the same concentrations as in the previous thrombosis model, 0.15, 0.30, or 0.45 mmoL/kg of P1Cm, 0.15 mmoL/kg of tirofiban, or an equal volume of saline by tail vein injection after being anesthetized by an intraperitoneal injection of ketamine (100 mg/kg). The operation was carried out as previously reported (Sato et al., [1998]; Jing et al., [2011]). Briefly, the right carotid and left jugular veins were separated. An 8 cm silk thread was placed inside a polyethylene tube filled with heparin sodium solution (50 IU/mL). The right carotid and left jugular veins were connected with the tube. One end of the tube containing the thread was inserted into the left jugular vein, and the other end was inserted into the right carotid artery. Blood was allowed to flow from the right carotid artery to the left jugular vein through the polyethylene tube for 15 min. The tube was then removed, and the weight of the attached wet thrombus on the thread was measured immediately. The rats were sacrificed through an intravenous injection of air.

[3] = dosage IC50 (P1Cm 0.075, tirofiban 0.025 mmol/kg), i.v., n = 6, within 3 days
[4] = dosage IC90, i.v., n = 6, within 3 days

SMILES | Mortality (Kunming mice; [3]) | Mortality (Kunming mice; [4]) | Mortality (Kunming mice; mouse, in vivo, iv) | Effect on coagulation parameters (plasma coagulation; 0.15 mM, P < 0.05) | FIB (plasma coagulation; tirofiban group (0.15 mM), 5 min 37°C) | PSFV (peak systolic flow velocity) [1] | Thrombosis SIZE/area [1] | VSR (vascular stenosis rate) [1] | Mortality (Kunming mice; dosage 10x IC90 (P1Cm 6, tirofiban 2 mmol/kg), i.v., n = 6, within 3 days) | EMW (thrombosis wet weight) ([2]; 0.15 mmol/kg tail vein, Wistar rats, 15 min shunt, n = 10, mean ± SD) | Decrease of thrombus weight vs saline group ([2]; 0.15 (mM in the source), rats)
CC[C@H](C)[C@H](N)C(=O)N[C@@H](CCCNC(=N)N)C(=O)N[C@H](C(=O)N1CCC[C@H]1C(=O)N[C@@H](CCCCN)C(=O)O)[C@@H](C)O [Peptide P1Cm] (H-IRTPK-OH) | 0 | 0 | 0 |  |  |  |  |  |  |  | 
CCCCS(=O)(=O)N[C@@H](Cc1ccc(OCCCCC2CCNCC2)cc1)C(=O)O [Tirofiban] | 0 | 0/6 |  | apparently inhibited the coagulation and affected the parameters | 4.23 ± 0.71 g/L | 84.2 ± 3.50 cm/s | 0.007 ± 0.001^* cm^2 | 28.25 ± 5.83 % | 2/6 | 27.51 ± 4.03 mg | 39.92%
